Experimental data: PMC8459327, “Identification of molecular glues of the SLP76/14-3-3 protein–protein interaction” (RSC Medicinal Chemistry, 2021)
Where “and” joins values, the source holds several entries; their conditions need not be identical. Equal values may be shown once.

Tests used:
Type in all cases: binding
14-3-3γ/SLP76 [1] = target: T1, 14-3-3γ/SLP76 (Homo sapiens, UniProt P61981+Q13094); test: HTRF dose-response assay on 14-3-3γ/SLP76; conditions: stabilisation; 14-3-3γ-Tb 1 nM, SLP76-AF647 600 nM, 5% DMSO; EC50 estimated from fit; read-out: HTRF EC50 14-3-3γ/SLP76
Method: 384-Well logistic plates were prefilled with 2 μL of compounds at 2 mM, 100% DMSO, except for columns 1, 2, 23 and 24. Columns 1, 2 were filled with 2 μL of DMSO while columns 23, 24 were filled with 2 μL of the 14-3-3 inhibitor R18 at 20 μM using a Multidrop Dispenser (ThermoScientific). Next, 40 μL of protein mixture containing Tb-labelled 14-3-3γ at 1 nM and AF647 labelled SLP76 at 600 nM in assay buffer (50 mM Tris pH 7.5, 150 mM NaCl, 5 mM MgCl2, 0.05% v/v Tween-20) were added using a Multidrop Dispenser (ThermoScientific). […] To perform the assay, 30 μL volumes were then transferred using a Biomek FX^P Automated Workstation (Beckman Coulter) into Corning 384-well 3574 assay plates. The plates were incubated at room temperature with gentle shaking for 4 h. Finally, the data were collected on a PHERAstar FSX plate reader (BMG Labtech) with an λex 337 nm, λem 665 nm and 620 nm HTRF filter setting. The data were exported in IDBS ActivityBase (IDBS) where they were normalised setting the R18 negative control as 100% inhibition and the DMSO control as 0%. Negative percentage values were therefore associated with a stabilisation of the 14-3-3γ/SLP76 interaction. The threshold of −20% inhibition (or 20% stabilisation) was chosen to select the hits to follow up. The selected hits were retested on 14-3-3γ/SLP76 and were also tested against an unrelated protein pair (IL-17/receptor) in a similar assay setup. […] All the assays were performed as described above.
(§1) 384 logistic plates were prefilled with 40 μL of compounds at 10 mM, 100% DMSO in column 3. Columns 1, 2 and 4 to 22 were filled with 20 μL of 100% DMSO with a Multidrop Dispenser (ThermoScientific). 2-Fold dilutions of the compounds were carried over from column 3 to 22, with a CyBio FeliX liquid handler (analytikjena). 2 μL of R18 peptide at 20 μM was added to columns 23 and 24 of the Corning 384-well 3574 final assay plates with a Multidrop Dispenser (ThermoScientific). 40 μL of protein mixture, containing Tb labelled 14-3-3γ at 1 nM and AF647 labelled SLP76 at 600 nM in assay buffer (50 mM Tris pH 7.5, 150 mM NaCl, 5 mM MgCl2, 0.05% v/v Tween-20) were added with a Multidrop Dispenser (ThermoScientific) into the Corning 384-well 3574 final assay plates. 2 μL of compounds along with the DMSO control were then transferred with a CyBio FeliX liquid handler (analytikjena) from the 384 logistic plates to the final Corning 384-well 3574 assay plates. […] The dose–response on the first 64 compounds was performed in singlet from a 500 μM top concentration. The repetition on the best 16 compounds was performed in duplicates from a 250 μM top concentration. A dose–response assay on an unrelated 14-3-3ζ/p27 HTRF protein pair was performed as described above. Incubation, data acquisition and normalisation were performed as described above. For EC50 estimation, the data were fitted with a “log(agonist) vs. response (three parameters)” model on GraphPad Prism version 8.1.1 for Windows, GraphPad Software, La Jolla California USA, www.graphpad.com. In the case of duplicates, each data point is the average of a duplicate measurement, standard deviation is reported as error bars.

14-3-3ζ/p27 = 14-3-3ζ/p27 (Homo sapiens, UniProt P46527+P63104); test: HTRF dose-response assay on 14-3-3ζ/p27; conditions: for Selectivity between 14-3-3γ/SLP76 and 14-3-3ζ/p27 (in words): comparison of HTRF dose-responses; for EC50: stabilisation, same FRET pair, EC50 estimated from fit, read-out: HTRF EC50 14-3-3ζ/p27
Method: as §1

14-3-3γ/SLP76 [2] = target: T1, 14-3-3γ/SLP76; test: Orthogonal SPR assay, compound flowed with SLP76 over immobilised 14-3-3γ; set-up: key to SPR RU (%) mass increase 14-3-3γ/SLP76: Ns: no stabilisation observed in SPR; conditions: for Stabilisation in SPR (in words): off-rate / mass on chip versus runs without compound; for SPR RU (%) mass increase 14-3-3γ/SLP76: percentage of SLP76 remained on the chip after the dissociation phase (+240 s)
Method: Of the 16 hit compounds 13 were tested in an orthogonal SPR assay in which each compound was flowed with SLP76 over 14-3-3γ immobilised on the chip. Runs at different concentrations of compound were compared to the runs in absence of compound. […] The effect of the compounds on 14-3-3γ/SLP76 was measured by calculating the percentage of SLP76 remained on the chip after the dissociation phase and immediately before: RU (%) = RU 5 s before dissociation/RU +240 s after dissociation. Dose–response curves were extrapolated from those sensorgrams plotting the RU (%) mass increase over the increase in compound concentrations.
SPR experiments were performed on a Biacore T200 (Cytiva). The Sensor Chip NTA was validated as previously reported by Soini et al.[63] A DMSO tolerance at 2% and 5% was performed in the same way (Fig. S1 ^†).
For compounds testing, the compounds were preincubated with SLP76, in final DMSO concentration of 5%. The compounds were tested at a single concentration of 100 μM and at multiple concentrations following a 3-fold dilution from a top concentration of 100 μM with SLP76 at the saturation concentration of 250 nM. A second set of experiments were performed at multiple concentrations of compound following a 3-fold dilution from a top concentration of 200 μM with SLP76 around the KD concentration of 40 nM. The SLP76/compound mixtures were flowed over the immobilised 14-3-3γ at 30 μL min^−1 for 180 s before allowing dissociation for 5 minutes. After every cycle, the chip was washed with EDTA and Ni^2+ and 14-3-3γ reinjected for the next cycle. The compound effects were measured by calculating the percentage of SLP76 remained on the chip after the dissociation phase and right before: RU (%) = RU 5 s before dissociation/RU +240 s after dissociation. RU response points relative to +240 s after dissociation were also plotted and an apparent EC50 was estimated. The data were fitted with a “One site – specific” model on GraphPad Prism version 8.1.1 for Windows, GraphPad Software, La Jolla California USA, www.graphpad.com.

14-3-3ζ/p27, sequence (P63104 whole entry): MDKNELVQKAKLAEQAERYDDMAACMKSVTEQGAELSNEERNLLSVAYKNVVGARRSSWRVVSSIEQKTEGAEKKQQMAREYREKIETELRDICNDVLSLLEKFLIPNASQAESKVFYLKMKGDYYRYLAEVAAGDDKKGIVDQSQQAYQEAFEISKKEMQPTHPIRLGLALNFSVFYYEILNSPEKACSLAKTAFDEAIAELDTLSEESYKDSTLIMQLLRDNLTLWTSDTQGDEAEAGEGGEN
14-3-3ζ/p27, sequence (P46527 whole entry): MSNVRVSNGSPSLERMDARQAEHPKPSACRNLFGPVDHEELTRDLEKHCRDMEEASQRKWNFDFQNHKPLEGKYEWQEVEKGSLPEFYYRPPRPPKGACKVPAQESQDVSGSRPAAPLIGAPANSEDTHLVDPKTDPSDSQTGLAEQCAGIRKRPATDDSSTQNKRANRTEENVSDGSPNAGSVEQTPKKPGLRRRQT
T1 sequence (Q13094 356-533): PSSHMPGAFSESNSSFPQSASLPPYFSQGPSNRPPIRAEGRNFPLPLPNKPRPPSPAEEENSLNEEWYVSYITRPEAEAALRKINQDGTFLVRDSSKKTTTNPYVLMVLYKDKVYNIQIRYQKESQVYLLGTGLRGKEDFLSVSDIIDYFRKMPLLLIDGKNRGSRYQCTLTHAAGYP
T1 sequence (P61981 whole entry): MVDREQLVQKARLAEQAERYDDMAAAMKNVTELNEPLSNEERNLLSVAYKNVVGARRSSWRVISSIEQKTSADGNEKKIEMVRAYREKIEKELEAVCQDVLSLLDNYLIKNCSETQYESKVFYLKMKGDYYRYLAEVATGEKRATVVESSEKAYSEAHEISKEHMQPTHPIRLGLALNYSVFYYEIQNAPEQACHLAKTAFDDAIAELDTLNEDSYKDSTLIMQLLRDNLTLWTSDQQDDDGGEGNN

## COc1ccccc1-c1nnc2scnn12 [Compound 9, 3-(2-methoxyphenyl)-[1,2,4]triazolo[3,4-b][1,3,4]thiadiazole]
14-3-3γ/SLP76 [1]
  EC50: 24.5 ± 5.8 µM
14-3-3ζ/p27
  Selectivity between 14-3-3γ/SLP76 and 14-3-3ζ/p27 (in words): modest level of selectivity in stabilising 14-3-3ζ/p27 over 14-3-3γ/SLP76
  EC50: 5.8 ± 2.2 µM
14-3-3γ/SLP76 [2]
  Stabilisation in SPR (in words): orthogonally confirmed by SPR
  SPR RU (%) mass increase 14-3-3γ/SLP76: 58.7%

## CC1=Nn2c(nnc2-c2ccoc2C)SC1 [Compound 10, 6-methyl-3-(2-methylfuran-3-yl)-7H-[1,2,4]triazolo[3,4-b][1,3,4]thiadiazine]
14-3-3γ/SLP76 [1]
  EC50: 70.1 ± 8.7 µM
14-3-3ζ/p27
  Selectivity between 14-3-3γ/SLP76 and 14-3-3ζ/p27 (in words): modest level of selectivity in stabilising 14-3-3ζ/p27 over 14-3-3γ/SLP76
  EC50: 16.5 ± 10.6 µM
14-3-3γ/SLP76 [2]
  Stabilisation in SPR (in words): no observable stabilisation
  SPR RU (%) mass increase 14-3-3γ/SLP76: Ns ^d

## Cc1ccc(-c2ccc3c(n2)C(=N)NC3CCc2ccc(O)cc2)o1 (stereo not drawn) [Compound 11, 4-[2-[7-imino-2-(5-methylfuran-2-yl)-5,6-dihydropyrrolo[3,4-b]pyridin-5-yl]ethyl]phenol]
14-3-3γ/SLP76 [1]
  EC50: 29.7 ± 21.8 µM
14-3-3ζ/p27
  EC50: 129 ± 70.5 µM

## CC(C)CNC(=O)c1ccc2c(c1)nc1n2CCN(C(C)C)C1=O [Compound 12, N-(2-methylpropyl)-1-oxo-2-propan-2-yl-3,4-dihydropyrazino[1,2-a]benzimidazole-8-carboxamide]
14-3-3γ/SLP76 [1]
  EC50: 3.2 µM and 3.8 µM
14-3-3ζ/p27; ratio of HTRF EC50s
  Selectivity for 14-3-3ζ/p27 over 14-3-3γ/SLP76: ~9 fold
14-3-3ζ/p27
  EC50: 0.43 ± 0.37 µM
14-3-3γ/SLP76 [2]
  Stabilisation in SPR (in words): orthogonally confirmed by SPR
  SPR RU (%) mass increase 14-3-3γ/SLP76: 67.4%

## S=c1[nH]nc(Cn2nnc3ccccc32)o1 [Compound 13, 5-(benzotriazol-1-ylmethyl)-1,3,4-oxadiazole-2-thiol]
14-3-3γ/SLP76 [1]
  EC50: 4.9 ± 1.1 µM
14-3-3ζ/p27
  EC50: > 250 µM
14-3-3γ/SLP76 [2]
  SPR RU (%) mass increase 14-3-3γ/SLP76: Ns ^d

## CC(=O)CSc1nc2c(c(=O)[nH]c(=O)n2C)n1Cc1cccc(C)c1 [Compound 15, 3-methyl-7-[(3-methylphenyl)methyl]-8-(2-oxopropylsulfanyl)purine-2,6-dione]
14-3-3γ/SLP76 [1]
  EC50: 17.1 ± 5.2 µM
14-3-3ζ/p27
  EC50: 11.6 ± 6.1 µM

## O=C(c1ccc(Cl)cc1)n1c(Cn2nnc(-c3cccc4ccccc34)n2)n[nH]c1=S [Compound 16, (4-chlorophenyl)-[3-[(5-naphthalen-1-yltetrazol-2-yl)methyl]-5-sulfanylidene-1H-1,2,4-triazol-4-yl]methanone]
14-3-3γ/SLP76 [1]
  EC50: 1.2 ± 0.7 µM
14-3-3ζ/p27
  EC50: 80.6 ± 53.4 µM
